≈ marks a conversion by molar mass, not a printed value.

For orientation: MIC means the smallest concentration in the dilution series that meets the test's criterion for growth inhibition.

The test system of one assay is S. aureus. The assay is described as follows: Minimum Inhibitory Concentration (MIC), inhibition of growth of S. aureus in vitro. The format is cell-based. The settings on record: Staphylococcus aureus. The protocol:
Once the compounds of the present invention were identified through the MazEF screening assay described above, the activity of the compounds to inhibit growth of S. aureus in vitro was tested using the standard method of determining Minimum Inhibitory Concentrations (MICs). Such methods are well known to those of skill in the art since determining MIC doses is a standard assay in development of antibiotic drugs. For example, MIC values can be determined according to the Clinical and Laboratory Standards Institute guidelines. In Table 1, the MIC values are presented for each of the ten compounds identified through the MazEF screening assay as having potential for antibiotic activity in S. aureus.
`Cc1ccc(Nc2nc3nonc3nc2N)c(C)c1` [Compound 4] yielded an MIC of 12.5 mg/L (≈ 48.8 µM).
Consider `O=C1c2ccccc2-c2onc3ccc(Cl)c1c23` [Compound 5], for which it took 6.25 mg/L (≈ 24.4 µM) to inhibit growth (MIC).

The assay is the same for the next values; noted with them: Staphylococcus aureus; S. aureus growth in vitro; read-out: MIC.
On to `COc1ccc(/C=C2\SC(=O)NC2=S)cc1` [Compound 6], for which the MIC was 0.78 mg/L (≈ 3.1 µM).
The same measure, in the same setting: to `COc1cc(/C=C2/S/C(=N\S(=O)(=O)c3ccccc3)NC2=O)ccc1O` [Compound 7] belongs 100 mg/L (≈ 256 µM).
Same read-out and setting: next, `CN1C(=O)/C(=C/c2cc(Br)cc([N+](=O)[O-])c2O)SC1=S` [Compound 2]: 12.5 mg/L (≈ 33.3 µM); `CCN1CCc2c(sc(NC(=O)Nc3ccc(Cl)cc3)c2C(N)=O)C1` [Compound 9]: 100 mg/L (≈ 264 µM).

The values above are taken from patent US9999617B2, “Compositions for treating bacterial infections” (TRUSTEES OF DARTMOUTH COLLEGE, priority 2009, dated 2018).
